Experimental findings from US10829488B2, “N-(phenylsulfonyl)benzamides and related compounds as bcl-2 inhibitors” (THE REGENTS OF THE UNIVERSITY OF MICHIGAN, priority 2016, dated 2020) are described below.

Structures are written as SMILES. Like-named read-outs stand apart in the source and are kept apart here.

Data set [1] concerns RS4;11 leukemia xenograft. Put plainly: Antitumor activity in RS4;11 leukemia xenograft model. Type of data set: in vivo. The conditions noted are these: nude mice, oral gavage, treatment started day 11, FIG. 3. How it is done:
(§1) The antitumor activity of Cpd. No. 6 (compound 6) was also studied in the RS4;11 leukemia xenograft model. Human RS4;11 tumor cells were injected into nude mice and treatment started on day 11 when the tumor size reached approximately 100 mm^3. Cpd. No. 6 was administered via oral gavage at indicated doses and schedules. Cpd.

Data set [2] is described as follows: Mouse weight in RS4;11 leukemia xenograft model. Type of data set: in vivo. The conditions noted are these: nude mice, oral gavage, FIG. 4. How it is done:
as §1

The nature of the next data set: Pharmacokinetics in rats. The conditions noted are these: rat, in vivo. How it is done:
The pharmacokinetics of ABT-199 and representative Compounds of the Disclosure were evaluated in rats at an IV dose of 2 mg/kg and an oral dose of 20 mg/kg.

Setting [3] is: IV 2 mg/kg, read-out: AUC0-∞ (ng · h/mL) IV.
Where [4] appears, read: oral 20 mg/kg, read-out: AUC0-∞ (ng · h/mL) PO.

With `O=C(NS(=O)(=O)c1ccc(NC[C@H]2COCCO2)c([N+](=O)[O-])c1)c1ccc(N2CCN(CC3=C(c4ccc(Cl)cc4)CC4(CCC4)CC3)CC2)cc1Oc1cnc2[nH]ccc2c1` [Cpd. No. 6, (S)-N-((4-(((1,4-dioxan-2-yl)methyl)amino)-3-nitrophenyl)sulfonyl)-2-((1H-pyrrolo[2,3-b]pyridin-5-yl)oxy)-4-(4-((6-(4-chlorophenyl)spiro[3.5]non-6-en-7-yl)methyl)piperazin-1-yl)benzamide], the “Antitumor activity (tumor growth)” value in data set [1] is “inhibits tumor growth”. In data set [2], the Mouse weight result was “does not cause weight loss”. Also, the AUC(0-inf) came out at 2920 ng·h/mL in the data set “Pharmacokinetics in rats” (setting [3]) and 13500 ng·h/mL in “Pharmacokinetics in rats” (setting [4]).
In the case of `O=C(NS(=O)(=O)c1ccc(NCC2CCOCC2)c([N+](=O)[O-])c1)c1ccc(N2CCN(CC3=C(c4ccc(Cl)cc4)CC4(CCC4)CC3)CC2)cc1Oc1cnc2[nH]ccc2c1` [Cpd. No. 3, 2-((1H-pyrrolo[2,3-b]pyridin-5-yl)oxy)-4-(4-((6-(4-chlorophenyl)spiro[3.5]non-6-en-7-yl)methyl)piperazin-1-yl)-N-((3-nitro-4-(((tetrahydro-2H-pyran-4-yl)methyl)amino)phenyl)sulfonyl)benzamide], the AUC(0-inf) in the data set “Pharmacokinetics in rats” (setting [3]) stood at 2680 ng·h/mL; in the data set “Pharmacokinetics in rats” (setting [4]) it was 7780 ng·h/mL.
As to `CC1(C)CCC(CN2CCN(c3ccc(C(=O)NS(=O)(=O)c4ccc(NCC5CCOCC5)c([N+](=O)[O-])c4)c(Oc4cnc5[nH]ccc5c4)c3)CC2)=C(c2ccc(Cl)cc2)C1` [ABT-199, Venetoclax, reference compound], the figures for the AUC(0-inf) in “Pharmacokinetics in rats” (setting [3]) and in the data set “Pharmacokinetics in rats” (setting [4]) were 5450 ng·h/mL and 20800 ng·h/mL, respectively.
